Laboratory results as given in publication PMC10614203, “Synthesis, Structure–Activity Relationships, Radiofluorination, and Biological Evaluation of [^18F]RM365, a Novel Radioligand for Imaging the Human Cannabinoid Receptor Type 2 (CB2R) in the Brain with PET” (Journal of Medicinal Chemistry, 2023).
Values joined by “and” are separate entries in the source; they are usually repeats but may differ in a detail not shown here. Identical values can stand only once.

How the values were obtained:
hCB2R = biological target: T1, hCB2R (Homo sapiens, UniProt P34972); test: Homologous competition binding of [18F]RM365 / RM365 on membranes of hCB2R-CHO cells
T1 construct: host or cells: CHO cells, stably transfected
T1 sequence (P34972 whole entry): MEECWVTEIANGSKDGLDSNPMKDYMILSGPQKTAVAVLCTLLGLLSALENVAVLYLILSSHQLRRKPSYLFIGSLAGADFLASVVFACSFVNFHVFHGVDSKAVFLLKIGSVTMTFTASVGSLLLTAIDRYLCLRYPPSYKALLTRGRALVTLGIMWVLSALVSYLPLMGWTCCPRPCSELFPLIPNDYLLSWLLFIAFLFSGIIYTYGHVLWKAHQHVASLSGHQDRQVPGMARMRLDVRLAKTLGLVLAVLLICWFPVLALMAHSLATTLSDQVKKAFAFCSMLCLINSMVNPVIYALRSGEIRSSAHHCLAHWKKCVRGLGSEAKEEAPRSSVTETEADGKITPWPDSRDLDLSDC
Text: To complement the indirect determination of the affinity of RM365 toward the CB2R in vitro, we performed a direct binding study with the radiofluorinated ligand using preparations of CHO cells stably transfected with the cloned human receptor and one spleen from a female SPRD rat expressing high levels of the receptor in the leukocytes.[12] The results of the homologous competition study shown in Figure 6 confirm the good affinity of [^18F]RM365 toward the human CB2R with a KD value of about 2 nM. […] Furthermore, the measurement signal obtained from the incubation of [^18F]RM365 with the homogenate of rat spleen was in the range of the values obtained for the nonspecific binding of the radioligand toward the preparation of CB2R-transfected CHO cells. We conclude that RM365 binds the rat CB2R with lower affinity than the human CB2R but expect no significant interactions of the radioligand with nonspecific binding sites.[82] […]
The nonspecific binding of the respective radioligand was determined by coincubation with CP55,940 (final concentration 10^–5 M). The normalized values of bound activity (% specific binding) were calculated and plotted vs the logarithm of the concentration of the respective test compound. […]

[1] = set-up: species or system mouse; conditions: female, in vivo
Text: The biodistribution of [^18F]RM365 was investigated in vivo in mice (n = 4) and rats (n = 2) by dynamic PET imaging studies.
Among others, increasing activity in the duodenum over time and accumulation in the brown adipose tissue (BAT) were observed (Figure S10). In contrast, a slow washout from the salivary glands, muscle, bones, and kidneys could be observed. An initial comparably high TAC peak value with a SUVmean > 4 in the liver, left ventricle (blood), heart wall, and lung followed by a fast washout and a subsequent slower washout phase could be observed. Furthermore, we conclude a mainly hepatic excretion of the activity, as shown by the liver and jejunum TACs in both species and a bladder activity of 0.24 ± 0.19% of injected dose at 60 min in mice (Figures S8 and S10).
In vivo biodistribution studies of [^18F]RM365 were performed in female CD-1 mice (n = 4, 31 ± 3 g) and female Wistar rats (n = 4, 150 ± 11 g). For the uptake studies into the brain, male Wistar rats carrying the stereotactically injected AAV2/7-CaMKII0.4-intron-hCB2R(D80N) (right striatum) and AAV2/7-CaMKII0.4-intron-3flag-eGFP (control/contralateral, left striatum) were used (n = 6; bodyweights were 260 ± 11 g). Data were assessed by dynamic small animal PET (Nanoscan, Mediso, Budapest, Hungary) in 60 min recordings, followed by T1-weighted (GRE, TR/TE = 15.0/2.4 ms, 252/252, FA = 25°) MR imaging with whole-body coils for anatomical correlation and attenuation correction.
The PET scans were performed 3−4 months after the stereotactic injections. […] Nonparametric (semiquantitative) analysis of achieved time–activity curves (TACs) was performed with Microsoft Excel to determine the time to peak, the TAC peak value, and the area under the curve (AUC) [drawing 1] where c (radioactivity) is expressed as the standardized uptake value normalized to the bodyweight in g (SUV). […] Area under the curves (AUCs) and corresponding 95% confidence intervals (CIs, 95%) were calculated with GraphPad Prism (v.8.2) following the assumptions described by Gagnon et al.[39]

- IC50 (hCB2R; 0.078 nM [18F]RM365, increasing concentrations of RM365): 2.4 nM
- Kd (hCB2R; 0.078 nM [18F]RM365, single experiment in triplicate, KD = IC50 - concentration radioligand): 2.32 nM and ~2 nM
- initial TAC peak value (SUVmean) ([1]; CD-1 (mice), Wistar (rats), mouse): > 4
- SUV in spleen ([1]; CD-1, mouse): 0.7 ± 0.1
- bladder activity ([1]; CD-1, mouse, 60 min): 0.24 ± 0.19 % of injected dose
Structure (SMILES): CC1(C)Cc2ccc(C#N)cc2[C@@H]1NC(=O)c1cc2cc([18F])ccc2[nH]1 [[^18F]RM365]
